This is an account of results in PMC9112895, “Selective Inhibition of Plasmodium falciparum ATPase 6 by Artemisinins and Identification of New Classes of Inhibitors after Expression in Yeast” (Antimicrobial Agents and Chemotherapy, 2022).

In one assay the target is PfATP6 (Plasmodium falciparum, UniProt Q08853). As to the kind of experiment: cell-based. Format: cell-based. Details: pUGpd containing the yeast-optimized coding region of PfATP6 from Plasmodium falciparum; expressed in transfected cells; host or cells: Saccharomyces cerevisiae K667 and K667Δpdr5::HIS. As for the experimental part: The screening assay used here was developed from the protocol used by Pulcini et al. ([13]). A single colony of the yeast strain to be screened was picked and grown in 5 mL of selective medium until stationary phase was reached. The culture was diluted 100-fold in ampicillin-supplemented yeast extract-peptone-dextrose (YPD) medium to an OD at 620 nm (OD620) equivalent to that of lag phase. YPD medium was supplemented with an appropriate concentration of calcium, depending on the transformed strain. […] The optimal calcium concentration was periodically monitored and, if necessary, adjusted using a calcium concentration range of 10 to 30 mM. A final volume of 200 μL of the yeast culture was added to each well of a 96-well plate, with 5 technical replicates included per inhibitor. All inhibitors were dissolved in dimethyl sulfoxide (DMSO) unless otherwise stated. […] The 96-well plates were incubated at 30°C for 42 h. The yeast growth was estimated from the absorbance at 620 nm in a Tecan plate reader. Growth was normalized with the no-drug control to present data as percent growth. The data collected were analyzed using GraphPad Prism v9.0 (GraphPad software, San Diego, CA, U.S.A).
Sequence of PfATP6 (Q08853 whole entry): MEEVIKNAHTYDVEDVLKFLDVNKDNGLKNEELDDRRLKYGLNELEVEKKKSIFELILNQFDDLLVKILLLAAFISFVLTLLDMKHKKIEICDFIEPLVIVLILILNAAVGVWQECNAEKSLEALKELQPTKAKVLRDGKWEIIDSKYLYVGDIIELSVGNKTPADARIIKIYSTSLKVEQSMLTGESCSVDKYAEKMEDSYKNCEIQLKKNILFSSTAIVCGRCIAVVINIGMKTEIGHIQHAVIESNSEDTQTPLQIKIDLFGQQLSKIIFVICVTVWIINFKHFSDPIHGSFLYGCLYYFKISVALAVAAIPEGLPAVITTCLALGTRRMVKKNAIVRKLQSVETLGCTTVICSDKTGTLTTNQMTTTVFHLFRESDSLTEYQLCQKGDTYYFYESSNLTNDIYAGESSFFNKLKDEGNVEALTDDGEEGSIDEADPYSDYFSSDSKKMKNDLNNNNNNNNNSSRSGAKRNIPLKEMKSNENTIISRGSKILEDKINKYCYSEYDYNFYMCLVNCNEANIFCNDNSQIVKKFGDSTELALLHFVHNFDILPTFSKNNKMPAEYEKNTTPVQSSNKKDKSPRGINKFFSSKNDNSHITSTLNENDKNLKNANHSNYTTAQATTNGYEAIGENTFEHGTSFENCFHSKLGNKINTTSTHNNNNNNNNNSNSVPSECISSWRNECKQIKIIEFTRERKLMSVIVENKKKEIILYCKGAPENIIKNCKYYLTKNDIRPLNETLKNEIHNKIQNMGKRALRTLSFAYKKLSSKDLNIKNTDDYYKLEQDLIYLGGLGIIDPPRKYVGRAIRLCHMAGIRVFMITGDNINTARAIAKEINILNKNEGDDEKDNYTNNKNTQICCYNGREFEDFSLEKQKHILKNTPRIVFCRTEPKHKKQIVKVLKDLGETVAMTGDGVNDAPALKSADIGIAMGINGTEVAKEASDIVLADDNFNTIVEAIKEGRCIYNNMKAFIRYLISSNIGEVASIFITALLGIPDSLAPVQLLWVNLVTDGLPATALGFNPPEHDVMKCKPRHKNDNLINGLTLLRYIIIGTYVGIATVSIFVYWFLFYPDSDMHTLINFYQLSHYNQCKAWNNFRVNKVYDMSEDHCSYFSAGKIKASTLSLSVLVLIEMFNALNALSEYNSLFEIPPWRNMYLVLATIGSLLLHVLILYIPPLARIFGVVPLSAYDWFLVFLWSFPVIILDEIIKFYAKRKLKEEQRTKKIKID

The target in the next assay is T1, A623E/S769N PfATP6 (Plasmodium falciparum, UniProt Q08853, A623E/S769N).
T1 construct: expressed in transfected cells; host or cells: Saccharomyces cerevisiae K667-derived strain
T1 sequence (Q08853 1-1228 A623E/S769N): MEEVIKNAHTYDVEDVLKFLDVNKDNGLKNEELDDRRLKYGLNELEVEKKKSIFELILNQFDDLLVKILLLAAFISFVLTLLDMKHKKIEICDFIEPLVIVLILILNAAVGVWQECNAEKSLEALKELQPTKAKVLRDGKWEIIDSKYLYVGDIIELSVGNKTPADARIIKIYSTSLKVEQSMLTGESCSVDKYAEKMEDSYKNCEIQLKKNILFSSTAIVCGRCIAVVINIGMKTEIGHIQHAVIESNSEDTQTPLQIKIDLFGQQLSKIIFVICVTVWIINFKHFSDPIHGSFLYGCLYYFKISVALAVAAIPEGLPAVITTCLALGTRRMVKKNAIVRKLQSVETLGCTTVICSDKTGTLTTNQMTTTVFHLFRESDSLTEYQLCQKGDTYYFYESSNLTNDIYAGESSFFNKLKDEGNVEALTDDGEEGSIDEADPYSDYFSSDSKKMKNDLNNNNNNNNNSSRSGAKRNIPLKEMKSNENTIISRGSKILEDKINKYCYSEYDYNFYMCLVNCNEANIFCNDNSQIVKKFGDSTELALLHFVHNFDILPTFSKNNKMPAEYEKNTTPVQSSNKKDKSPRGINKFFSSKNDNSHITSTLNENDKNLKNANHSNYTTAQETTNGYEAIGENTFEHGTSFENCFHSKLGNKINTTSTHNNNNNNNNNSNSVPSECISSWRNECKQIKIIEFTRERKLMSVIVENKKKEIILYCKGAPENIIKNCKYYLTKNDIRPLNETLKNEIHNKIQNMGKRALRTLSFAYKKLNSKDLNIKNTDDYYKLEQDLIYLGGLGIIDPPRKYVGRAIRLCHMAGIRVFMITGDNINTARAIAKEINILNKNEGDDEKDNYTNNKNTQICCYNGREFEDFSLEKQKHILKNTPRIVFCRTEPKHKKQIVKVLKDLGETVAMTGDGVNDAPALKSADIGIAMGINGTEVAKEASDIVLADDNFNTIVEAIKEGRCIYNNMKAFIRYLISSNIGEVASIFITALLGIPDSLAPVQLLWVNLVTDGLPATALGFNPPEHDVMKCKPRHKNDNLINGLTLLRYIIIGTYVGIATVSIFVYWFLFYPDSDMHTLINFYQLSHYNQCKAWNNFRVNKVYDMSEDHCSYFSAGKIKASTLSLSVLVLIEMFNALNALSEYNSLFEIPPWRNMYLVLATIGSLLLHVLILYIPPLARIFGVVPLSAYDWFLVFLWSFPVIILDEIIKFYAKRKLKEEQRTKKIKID
As to the kind of experiment: Yeast whole-cell assay, PfATP6 A623E/S769N double mutant. Format: cell-based. As to conditions: read-out: IC50 (mean ± SD). Here is the method:
Yeast transformations were performed using the method described by Gietz and Schiestl ([48]), and transformants were selected by an uracil auxotrophic marker. Transformations were confirmed by colony PCR. Both K667 and K667Δpdr5::HIS were transformed with the following plasmids: pUGpd plasmid as a vector-only control (derived from pRS316 [49]); br434 plasmid (derived from pRS316 [50]) containing the SERCA1a coding region from rabbit skeletal fast-twitch muscle (pbr434-SERCA1a); and pUGpd containing the yeast-optimized coding region of PfATP6 from Plasmodium falciparum (pUGpd-PfATP6). Site-directed mutagenesis was performed on the SERCA1a coding region to produce the mutation E255L in the protein. Mutations were also introduced into the PfATP6 coding region to produce mutations L263E, A623E, and S769N and the double mutation A623E/S769N ([13]).
The screening assay used here was developed from the protocol used by Pulcini et al. ([13]). […] The optimal calcium concentration was periodically monitored and, if necessary, adjusted using a calcium concentration range of 10 to 30 mM. […] The yeast growth was estimated from the absorbance at 620 nm in a Tecan plate reader. […] The data collected were analyzed using GraphPad Prism v9.0 (GraphPad software, San Diego, CA, U.S.A).

Usually IC80 stands for the concentration needed for an effect of 80%. In general, IC50 refers to the concentration that gives 50% inhibition. In the case of `CC(=O)C1=C(O)[C@@H]2[C@H]3c4c[nH]c5cccc(c45)C[C@H]3C(C)(C)N2C1=O` [CPA, cyclopiazonic acid], the “approximate IC10” value at PfATP6 (fitness cost assays, drug pressure) was around 5 µM. Moreover, the concentration for an effect of 80% (IC80) at PfATP6 (read-out: approximate yeast IC80) is around 5 µM. Also, on A623E/S769N PfATP6, the IC50 was 6.61 µM.
